Experimental data published in patent US20260055097A9, “NRF2 PROTEIN DEGRADERS” (Ganymede Oncology, Inc., priority 2022, published 2026).
Where two headings read alike, the source gives them in different places.

Columns and labels:
[1] = biological target: T1, Nrf2 (Homo sapiens, UniProt Q16236); test: Nrf2 degradation in A549 HiBiT-Nrf2 cells, Nano-Glo HiBiT lytic detection (HiBiT readout); assay type: cell-based; set-up: host or cells: A549 HiBiT-Nrf2 cells (engineered line bought from Promega)
T1 sequence (Q16236 1-605): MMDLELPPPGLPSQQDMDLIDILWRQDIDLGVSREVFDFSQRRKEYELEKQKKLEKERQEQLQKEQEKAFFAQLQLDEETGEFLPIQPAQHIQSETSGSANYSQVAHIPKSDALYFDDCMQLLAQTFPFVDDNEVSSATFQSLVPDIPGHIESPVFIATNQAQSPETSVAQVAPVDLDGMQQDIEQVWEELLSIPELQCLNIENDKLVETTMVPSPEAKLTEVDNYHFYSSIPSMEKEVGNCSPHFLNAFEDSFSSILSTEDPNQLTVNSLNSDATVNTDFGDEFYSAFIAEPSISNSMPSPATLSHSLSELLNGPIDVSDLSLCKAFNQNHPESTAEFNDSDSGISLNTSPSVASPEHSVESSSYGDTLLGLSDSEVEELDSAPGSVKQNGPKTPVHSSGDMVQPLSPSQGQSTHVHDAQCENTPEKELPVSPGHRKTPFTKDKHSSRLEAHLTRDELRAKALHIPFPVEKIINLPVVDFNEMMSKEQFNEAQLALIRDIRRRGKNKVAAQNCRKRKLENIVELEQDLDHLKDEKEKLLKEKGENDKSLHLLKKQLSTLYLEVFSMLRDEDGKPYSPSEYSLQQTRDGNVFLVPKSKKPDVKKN
Method in brief: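 A549 HiBiT-Nrf2 cells seeded at 5,000 cells/well in Ham's F-12 with 10% FBS, then treated next day for 6 h and 20 h at 37 °C, 5% CO2. Nrf2 degradation read by Nano-Glo HiBiT lytic luminescence after 30 min at room temperature; staurosporine served as control.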

[2] = test system: LK-2; test: Cancer cell viability, LK-2 (CellTiter-Glo); assay type: cell-based; details: Homo sapiens, LK-2, 72 h, LK-2 cells, 3 days, read-out: Cellular IC50 (μM) LK-2
Method in brief: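 A549 and LK-2 cells were seeded overnight at 20 K/mL and 35 K/mL respectively. They were then exposed for 3 days to nine three-fold dilutions, typically from 30 µM final. Viability was read as CellTiter-Glo luminescence after a 15 min lysis.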

[3] = 6 h, read-out: DC50 (nM) at 6 h
[4] = 20 h, read-out: DC50 (nM) at 20 h

DC50 [1, 3] [nM]	DC50 [1, 4] [nM]	IC50 [2] [µM]	Structure (SMILES)
< 300	> 3000	0.003	Cc1sc(NC(=O)Cc2ccc(F)c(OCCOCCNc3ccc4c(c3)CN(C3CCC(=O)NC3=O)C4=O)c2)nc1-c1ccc2c(c1)CCN2C(=O)c1cncn1C (stereo not drawn) [Cpd. No. 30, 2-(3-(2-(2-((2-(2,6-dioxopiperidin-3-yl)-1-oxoisoindolin-5-yl)amino)ethoxy)ethoxy)-4-fluorophenyl)-N-(5-methyl-4-(1-(1-methyl-1H-imidazole-5-carbonyl)indolin-5-yl)thiazol-2-yl)acetamide]
< 300	< 300	0.02	Cc1sc(NC(=O)Cc2cccc(OCCOCCNc3cccc4c3C(=O)N(C3CCC(=O)NC3=O)C4=O)c2)nc1-c1ccc2c(c1)CCN2C(=O)C1CC1 (stereo not drawn) [Cpd. No. 34, N-(4-(1-(cyclopropanecarbonyl)indolin-5-yl)-5-methylthiazol-2-yl)-2-(3-(2-(2-((2-(2,6-dioxopiperidin-3-yl)-1,3-dioxoisoindolin-4-yl)amino)ethoxy)ethoxy)phenyl) acetamide]
